Like-named read-outs stand apart in the source and are kept apart here.
Conditions: crystals obtained by the crystallization process of the respective example (pH adjustment, coagulant, pH readjustment, cooling rate vary)
Description: As used herein, the term “bulk density” refers to the density measured based on the volume including voids generated between particles when powder is filled into a container. In particular, the density of powder which is measured after treating the powder by tapping a cylinder filled with the powder with a constant force so as to make the powder within the cylinder dense is called tapped bulk density (hereinafter, “BD”).

CSCC[C@H](N)C(=O)O [Example 3, L-methionine]
BD (tapped bulk density) of the obtained L-methionine crystals: 610 g/L | BD (tapped bulk density) of the obtained L-methionine crystals (listed as Ex. 3): 610 g/L

CSCC[C@H](N)C(=O)O [Example 7, L-methionine]
BD (tapped bulk density) of the obtained L-methionine crystals: 570 g/L | BD (tapped bulk density) of the obtained L-methionine crystals (listed as Ex. 7): 570 g/L

CSCC[C@H](N)C(=O)O [Example 12, L-methionine]
BD (tapped bulk density) of the obtained L-methionine crystals: 560 g/L | BD (tapped bulk density) of the obtained L-methionine crystals (listed as Ex. 12): 560 g/L

CSCC[C@H](N)C(=O)O [Comparative Example 2, L-methionine, reference compound]
BD (tapped bulk density) of the obtained L-methionine crystals: 520 g/L | BD (tapped bulk density) of the obtained L-methionine crystals (listed as Comp. Ex. 2): 520 g/L

CSCC[C@H](N)C(=O)O [Example 14, L-methionine]
BD (tapped bulk density) of the obtained L-methionine crystals: 600 g/L | BD (tapped bulk density) of the obtained L-methionine crystals (listed as Ex. 14): 600 g/L

CSCC[C@H](N)C(=O)O [Example 2, L-methionine]
BD (tapped bulk density) of the obtained L-methionine crystals: 350 g/L | BD (tapped bulk density) of the obtained L-methionine crystals (listed as Ex. 2): 350 g/L

CSCC[C@H](N)C(=O)O [Example 15, L-methionine]
BD (tapped bulk density) of the obtained L-methionine crystals: 500 g/L | BD (tapped bulk density) of the obtained L-methionine crystals (listed as Ex. 15): 500 g/L

CSCC[C@H](N)C(=O)O [Comparative Example 11, L-methionine, reference compound]
BD (tapped bulk density) of the obtained L-methionine crystals (listed as Comp. Ex. 11): 410 g/L

CSCC[C@H](N)C(=O)O [Example 8, L-methionine]
BD (tapped bulk density) of the obtained L-methionine crystals: 570 g/L | BD (tapped bulk density) of the obtained L-methionine crystals (listed as Ex. 8): 570 g/L

CSCC[C@H](N)C(=O)O [Comparative Example 12, L-methionine, reference compound]
BD (tapped bulk density) of the obtained L-methionine crystals: 660 g/L | BD (tapped bulk density) of the obtained L-methionine crystals (listed as Comp. Ex. 12): 660 g/L

CSCC[C@H](N)C(=O)O [Example 22, L-methionine]
BD (tapped bulk density) of the obtained L-methionine crystals: 700 g/L | BD (tapped bulk density) of the obtained L-methionine crystals (listed as Ex. 22): 700 g/L

CSCC[C@H](N)C(=O)O [Example 16, L-methionine]
BD (tapped bulk density) of the obtained L-methionine crystals: 480 g/L | BD (tapped bulk density) of the obtained L-methionine crystals (listed as Ex. 16): 480 g/L

CSCC[C@H](N)C(=O)O [Comparative Example 9, L-methionine, reference compound]
BD (tapped bulk density) of the obtained L-methionine crystals: 460 g/L | BD (tapped bulk density) of the obtained L-methionine crystals (listed as Comp. Ex. 9): 460 g/L

CSCC[C@H](N)C(=O)O [Comparative Example 6, L-methionine, reference compound]
BD (tapped bulk density) of the obtained L-methionine crystals: 450 g/L | BD (tapped bulk density) of the obtained L-methionine crystals (listed as Comp. Ex. 6): 450 g/L

CSCC[C@H](N)C(=O)O [Example 21, L-methionine]
BD (tapped bulk density) of the obtained L-methionine crystals: 800 g/L | BD (tapped bulk density) of the obtained L-methionine crystals (listed as Ex. 21): 800 g/L

CSCC[C@H](N)C(=O)O [Example 4, L-methionine]
BD (tapped bulk density) of the obtained L-methionine crystals: 590 g/L | BD (tapped bulk density) of the obtained L-methionine crystals (listed as Ex. 4): 590 g/L

CSCC[C@H](N)C(=O)O [Example 13, L-methionine]
BD (tapped bulk density) of the obtained L-methionine crystals: 530 g/L | BD (tapped bulk density) of the obtained L-methionine crystals (listed as Ex. 13): 530 g/L
